From the supplement of paper PMC8149375

Assays:
Conditions in all cases: treatment: drug alone; 5 days
769-P [1] = assay: GI50, drug alone; higher = less potent
Method: (§1)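 Primary HTS: 8 RCC cell lines treated with 8 doses (up to 10 uM) of each library drug alone for 5 days; viability read by CellTiter-Glo and normalised to DMSO. GI50 was fitted with XLfit (4-parameter), AUC is the area under the dose-response curve, and minimum viability is the lowest fraction of DMSO viability across doses.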

786-O [2] = assay: GI50, drug alone; higher = less potent
Method: as §1

A498 [3] = assay: GI50, drug alone; higher = less potent
Method: as §1

ACHN [4] = assay: GI50, drug alone; higher = less potent
Method: as §1

CAKI-1 [5] = assay: GI50, drug alone; higher = less potent
Method: as §1

SN12C [6] = assay: GI50, drug alone; higher = less potent
Method: as §1

TK-10 [7] = assay: GI50, drug alone; higher = less potent
Method: as §1

UO-31 [8] = assay: GI50, drug alone; higher = less potent
Method: as §1

769-P [9] = assay: minimum viability across doses, drug alone, relative to DMSO (fraction); higher = less growth inhibition
Method: as §1

786-O [10] = assay: as above
Method: as §1

A498 [11] = assay: as above
Method: as §1

ACHN [12] = assay: as above
Method: as §1

CAKI-1 [13] = assay: as above
Method: as §1

SN12C [14] = assay: as above
Method: as §1

TK-10 [15] = assay: as above
Method: as §1

UO-31 [16] = assay: as above
Method: as §1

769-P [17] = assay: AUC of dose-response viability curve, drug alone (arbitrary (AUC of normalised viability)); higher = less growth inhibition
Method: as §1

786-O [18] = assay: as above
Method: as §1

A498 [19] = assay: as above
Method: as §1

ACHN [20] = assay: as above
Method: as §1

CAKI-1 [21] = assay: as above
Method: as §1

SN12C [22] = assay: as above
Method: as §1

TK-10 [23] = assay: as above
Method: as §1

UO-31 [24] = assay: as above
Method: as §1

| SMILES | GI50, drug alone (769-P [1]) [µM] | GI50, drug alone (786-O [2]) [µM] | GI50, drug alone (A498 [3]) [µM] | GI50, drug alone (ACHN [4]) [nM] | GI50, drug alone (CAKI-1 [5]) [µM] | GI50, drug alone (SN12C [6]) [µM] | GI50, drug alone (TK-10 [7]) [µM] | GI50, drug alone (UO-31 [8]) [µM] | minimum viability across doses (769-P [9]) | minimum viability across doses (786-O [10]) | minimum viability across doses (A498 [11]) | minimum viability across doses (ACHN [12]) | minimum viability across doses (CAKI-1 [13]) | minimum viability across doses (SN12C [14]) | minimum viability across doses (TK-10 [15]) | minimum viability across doses (UO-31 [16]) | AUC of dose-response viability curve (769-P [17]) | AUC of dose-response viability curve (786-O [18]) | AUC of dose-response viability curve (A498 [19]) | AUC of dose-response viability curve (ACHN [20]) | AUC of dose-response viability curve (CAKI-1 [21]) | AUC of dose-response viability curve (SN12C [22]) | AUC of dose-response viability curve (TK-10 [23]) | AUC of dose-response viability curve (UO-31 [24]) |
| --- | --- | --- | --- | --- | --- | --- | --- | --- | --- | --- | --- | --- | --- | --- | --- | --- | --- | --- | --- | --- | --- | --- | --- | --- |
| CC1CCN(C(=O)CC#N)C[C@@H]1N(C)c1ncnc2[nH]ccc12.O=C(O)CC(O)(CC(=O)O)C(=O)O (stereo in doubt) | > 10 | > 10 | > 10 | > 10000 | > 10 | > 10 | > 10 | > 10 | 0.938 | 0.614 | 0.817 | 0.771 | 0.918 | 0.854 | 0.797 | 0.897 | 3.66 | 2.72 | 3.54 | 3.18 | 3.73 | 3.23 | 3.16 | 4.05 |
| CO[C@H]1C[C@H]2CC[C@@H](C)[C@@](O)(O2)C(=O)C(=O)N2CCCC[C@H]2C(=O)O[C@H]([C@H](C)C[C@@H]2CC[C@H](OP(C)(C)=O)[C@H](OC)C2)CC(=O)[C@H](C)/C=C(\C)[C@@H](O)[C@@H](OC)C(=O)[C@H](C)C[C@H](C)/C=C/C=C/C=C/1C (stereo in doubt) [Deforolimus (Ridaforolimus)] | > 10 | < 0.003 | > 10 | 559 | 1.07 | 0.454 | > 10 | 0.00775 | 0.607 | 0.271 | 0.636 | 0.409 | 0.456 | 0.443 | 0.542 | 0.0878 | 2.66 | 1.24 | 2.6 | 1.98 | 2.1 | 2.23 | 2.42 | 0.965 |
| CO[C@H]1CC2CC[C@@H](C)[C@@](O)(O2)C(=O)C(=O)N2CCCC[C@H]2C(=O)O[C@H]([C@H](C)C[C@@H]2CCC(OC(=O)C(C)(CO)CO)[C@H](OC)C2)CC(=O)[C@H](C)/C=C(\C)[C@@H](O)[C@@H](OC)C(=O)[C@H](C)C[C@H](C)/C=C/C=C/C=C/1C (stereo in doubt) [Temsirolimus (Torisel)] | > 10 | < 0.003 | > 10 | 386 | 1.27 | > 10 | 3.9 | 0.0803 | 0.62 | 0.294 | 0.641 | 0.407 | 0.433 | 0.578 | 0.486 | 0.299 | 2.8 | 1.31 | 2.57 | 2.03 | 2.15 | 2.31 | 2.39 | 1.58 |
| Cn1cnc(N)c2ncnc1-2 [3-Methyladenine] | > 10 | > 10 | > 10 | > 10000 | > 10 | > 10 | > 10 | > 10 | 0.947 | 0.618 | 1.04 | 0.879 | 0.991 | 0.961 | 0.696 | 1.12 | 3.6 | 2.67 | 3.89 | 3.25 | 3.74 | 3.65 | 2.77 | 4.92 |
| Cc1nc(NC(=O)N2CCC[C@H]2C(N)=O)sc1-c1csc(C(C)(C)C)n1 [A66] | > 10 | 5.72 | > 10 | > 10000 | > 10 | > 10 | > 10 | > 10 | 0.823 | 0.418 | 0.787 | 0.803 | 0.805 | 0.659 | 0.631 | 0.757 | 3.33 | 2.57 | 3.34 | 3.42 | 3.36 | 2.94 | 2.93 | 3.47 |
| CC1(C)CCC(CN2CCN(c3ccc(C(=O)NS(=O)(=O)c4ccc(NCC5CCOCC5)c([N+](=O)[O-])c4)c(Oc4cnc5[nH]ccc5c4)c3)CC2)=C(c2ccc(Cl)cc2)C1 [ABT-199 (GDC-0199 )] | > 10 | < 0.003 | > 10 | > 10000 | > 10 | > 10 | > 10 | > 10 | 0.88 | 0.442 | 0.915 | 0.847 | 0.846 | 0.821 | 0.617 | 1.02 | 3.47 | 2.19 | 3.73 | 3.16 | 3.28 | 3.19 | 3.06 | 3.98 |
| CC1(C)CCC(c2ccc(Cl)cc2)=C(CN2CCN(c3ccc(C(=O)NS(=O)(=O)c4ccc(N[C@H](CCN5CCOCC5)CSc5ccccc5)c(S(=O)(=O)C(F)(F)F)c4)cc3)CC2)C1 [ABT-263 (Navitoclax)] | 3.17 | 0.181 | > 10 | 2280 | > 10 | > 10 | 1.07 | 0.784 | 0.0787 | 0.00566 | 0.622 | 0.0597 | 0.603 | 0.524 | 0.163 | 0.00527 | 3.02 | 1.72 | 3 | 2.51 | 3.41 | 3.21 | 2.39 | 2.31 |
| CN(C)CC[C@H](CSc1ccccc1)Nc1ccc(S(=O)(=O)NC(=O)c2ccc(N3CCN(Cc4ccccc4-c4ccc(Cl)cc4)CC3)cc2)cc1[N+](=O)[O-] [ABT-737] | 9.18 | 0.501 | 5.36 | 5690 | > 10 | > 10 | 4.57 | 3.08 | 0.305 | 0.00151 | 0.1 | 0.206 | 0.952 | 0.625 | 0.253 | 0.00414 | 3.47 | 1.66 | 3.25 | 2.88 | 3.76 | 3.25 | 2.43 | 4.03 |
| CCN1CCN(Cc2ccc(-c3cc4c(N[C@H](C)c5ccccc5)ncnc4[nH]3)cc2)CC1 [AEE788 (NVP-AEE788)] | 1.64 | 8.51 | > 10 | 415 | 3.19 | 4.79 | 0.581 | 7.87 | 0.0865 | 0.108 | 0.898 | 0.0622 | 0.0495 | 0.276 | 0.0159 | 0.0104 | 2.61 | 3.45 | 3.87 | 2.1 | 2.81 | 2.77 | 2.13 | 3.98 |
| N#C/C(=C\c1ccc(O)c(O)c1)C(=O)NCc1ccccc1 [AG-490] | > 10 | 5.99 | > 10 | 7430 | > 10 | > 10 | > 10 | > 10 | 0.823 | 0.369 | 1.04 | 0.301 | 0.948 | 0.788 | 0.615 | 0.843 | 3.27 | 2.89 | 3.87 | 3.09 | 3.57 | 3.37 | 3.21 | 4.19 |
| CC(C)(C)c1cc(C=C(C#N)C#N)cc(Br)c1O [AG-1024] | > 10 | > 10 | > 10 | > 10000 | > 10 | > 10 | > 10 | > 10 | 0.853 | 0.729 | 1.02 | 0.904 | 0.846 | 0.919 | 0.791 | 1.24 | 3.41 | 2.78 | 3.94 | 3.56 | 3.65 | 3.53 | 3.13 | 4.79 |
| COc1cc2ncnc(Nc3cccc(Cl)c3)c2cc1OC [AG-1478 (Tyrphostin AG-1478)] | 3.24 | 5.49 | > 10 | 1160 | > 10 | > 10 | 2.85 | > 10 | 0.481 | 0.179 | 1.01 | 0.37 | 0.628 | 0.813 | 0.472 | 0.795 | 2.48 | 2.32 | 4.85 | 2.24 | 2.91 | 2.95 | 2.36 | 4.04 |
| COc1ccc2c(Oc3ccc(NC(=O)c4c(C)n(CC(C)(C)O)n(-c5ccccc5)c4=O)nc3)ccnc2c1 [AMG458] | > 10 | 4.55 | > 10 | 4790 | 8.65 | > 10 | > 10 | > 10 | 0.971 | 0.25 | 0.859 | 0.262 | 0.449 | 0.71 | 0.66 | 0.597 | 3.55 | 2.82 | 3.66 | 3.03 | 3.32 | 3.13 | 3.29 | 3.98 |
| Cc1csc(-c2nnc(Nc3ccc(Oc4ncccc4-c4ccnc(N)n4)cc3)c3ccccc23)c1 [AMG 900] | 0.109 | 0.0169 | > 10 | 171 | 0.672 | 4.57 | > 10 | > 10 | 0.287 | 0.0401 | 0.776 | 0.231 | 0.425 | 0.479 | 0.561 | 0.875 | 1.64 | 0.822 | 4.67 | 1.72 | 2.02 | 2.49 | 2.41 | 3.73 |
| COc1ccc2c(OCc3nnc4ccc(-c5ccccc5)nn34)ccnc2c1 [AMG-208] | > 10 | > 10 | > 10 | > 10000 | > 10 | > 10 | > 10 | > 10 | 0.879 | 0.869 | 1.15 | 0.888 | 0.678 | 0.912 | 0.804 | 1.25 | 3.41 | 3.53 | 4.38 | 3.47 | 2.66 | 3.4 | 3.11 | 4.94 |
| O=C1NC(=O)[C@@H](c2cn3c4c(cccc24)CCC3)[C@@H]1c1c[nH]c2ccccc12 [ARQ 197 (Tivantinib)] | 1.55 | 0.424 | 1.15 | 1540 | 1.06 | 2.17 | 2.88 | 1.31 | 0.0795 | 0.00526 | 0.121 | 0.144 | 0.201 | 0.251 | 0.326 | 0.0233 | 2.55 | 2.06 | 3 | 2.63 | 2.54 | 2.86 | 2.77 | 3.27 |
| C=CC(=O)Nc1ccc2ncnc(Nc3ccc(OCc4cccc(F)c4)c(Cl)c3)c2c1.Cc1ccc(S(=O)(=O)O)cc1 [AST-1306] | 1.72 | 2.38 | > 10 | 3110 | 3.35 | 4.97 | 0.884 | > 10 | 0.048 | 0.0947 | 0.922 | 0.315 | 0.174 | 0.188 | 0.109 | 1.05 | 2.61 | 2.59 | 3.99 | 2.9 | 2.76 | 3.03 | 2.33 | 4.13 |
